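Interpolation was linear, between the two tested concentrations surrounding the appropriate level; five concentrations were tested over 48 hours in 96-well plates. Here, GI50 denotes the concentration required for 50% inhibition of growth. TGI marks complete inhibition of growth.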
Experiments:
Assay in all cases: NCI-60 cell line screen, 48 h
A498 renal = tested on: A498 renal
HS 578T breast = tested on: HS 578T breast
LOX IMVI melanoma = tested on: LOX IMVI melanoma
MDA-MB-435 = tested on: MDA-MB-435
NCI-H460 lung = tested on: NCI-H460 lung
OVCAR-8 ovarian = tested on: OVCAR-8 ovarian
SF-539 CNS = tested on: SF-539 CNS
U251 CNS = tested on: U251 CNS
UACC-62 melanoma = tested on: UACC-62 melanoma
UO-31 renal = tested on: UO-31 renal

Row | Compound | GI50 (A498 renal) [µM] | TGI (A498 renal) [µM] | GI50 (HS 578T breast) [µM] | TGI (HS 578T breast) [µM] | GI50 (LOX IMVI melanoma) [µM] | TGI (LOX IMVI melanoma) [µM] | GI50 (MDA-MB-435) [µM] | TGI (MDA-MB-435) [µM] | GI50 (NCI-H460 lung) [µM] | TGI (NCI-H460 lung) [µM] | GI50 (OVCAR-8 ovarian) [µM] | TGI (OVCAR-8 ovarian) [µM] | GI50 (SF-539 CNS) [µM] | TGI (SF-539 CNS) [µM] | GI50 (U251 CNS) [µM] | TGI (U251 CNS) [µM] | GI50 (UACC-62 melanoma) [µM] | TGI (UACC-62 melanoma) [µM] | GI50 (UO-31 renal) [µM] | TGI (UO-31 renal) [µM]
1 | COc1cc2ncnc(Nc3ccc4c(cnn4Cc4ccccc4)c3)c2cc1OC | > 18.6 | > 25 | > 21 | > 25 | > 19.4 | > 25 | > 25 | > 25 | > 25 | > 25 | > 17.5 | > 25 | > 15.8 | > 25 | > 19.2 | > 25 | > 25 | > 25 | 3.96 | > 25
2 | COc1ccc(/C=C2\CN(Cc3cn(CCNc4ccnc5cc(Cl)ccc45)nn3)C/C(=C\c3ccc(OC)c(OC)c3)C2=O)cc1OC | 2.53 | 13.2 | 6.49 | > 100 | 2.1 | 4.82 | 3.01 | 19.1 | 2.22 | 5.74 | 3.94 | > 100 | 2.58 | 8.14 | 3.2 | 27.7 | 2.14 | 5.39 | 14.5 | 31
3 | COc1cc(N2CCN(C(C)C)CC2)ccc1Nc1nc(Nc2cccc(F)c2C(=O)O)c2cc[nH]c2n1 | > 25 | > 25 | > 25 | > 25 | > 25 | > 25 | > 25 | > 25 | > 25 | > 25 | > 25 | > 25 | > 25 | > 25 | > 25 | > 25 | > 25 | > 25 | > 25 | > 25
4 | CCCCNC(=O)c1cc(NCc2cc(O)ccc2O)ccc1O | 41.1 | > 100 | 24.8 | > 100 | 14.7 | 29.2 | 17.7 | 39.5 | 47.3 | > 100 | 18.1 | 68.8 | 4.16 | 17.1 | 22.6 | 59.1 | 13.7 | 27.1 | 2.82 | 12.1
5 | O=C1C(=O)c2ccccc2C(O)=C1CCCc1ccc(C2CCCCCC2)cc1 | 0.349 | 13.1 | 4.84 | 57.8 | 0.322 | 10.5 | 0.608 | 48.2 | 0.361 | 13.4 | 1.62 | 41.7 | 2.56 | > 74.7 | 0.687 | 25.3 | 0.718 | 21.2 | 0.612 | 8.94
6 | COc1cc(-c2cc(/C=C/C(=O)c3ccc(Cl)c(Cl)c3)[nH]n2)cc(OC)c1OC | 5.89 | 43 | 16.6 | > 100 | 3.39 | 16.4 | 5.65 | > 100 | 4.91 | 36.6 | 6.3 | 34 | 4.31 | 18.7 | 8.7 | 80.5 | 18.8 | > 100 | 5.73 | > 100
7 | CCCCC(=O)N/N=C/c1c(O)ccc2ccccc12 | 7.71 | 44.4 | 6.54 | > 100 | 1.15 | > 31.8 | 4.37 | > 100 | 1.36 | > 100 | 2.78 | > 100 | 2.8 | > 44.9 | 1.6 | > 100 | 2.3 | 14.2 | 1.87 | 28
8 | COc1cc(C2C3=C(COC3=O)Nc3c2ccc2c3CCCC2)cc2c1OCO2 (stereo not given) | 0.0265 | 0.175 | 0.0367 | 45.5 | 0.0652 | > 100 | 0.0199 | 0.0497 | 0.0353 | 15.7 | 0.045 | 20.2 | 0.0331 | 13.4 | 0.0418 | 14.9 | 0.0462 | > 100 | 0.337 | > 100
9 | c1cncc(C2Nc3cccc4cccc(c34)N2)c1 | 30.9 | > 100 | 73.4 | > 100 | 21.7 | 57.6 | 35.7 | > 100 | > 100 | > 100 | 20 | 48.6 | 39 | > 100 | 21.9 | 54 | 38.7 | > 100 | 11.7 | 27.4
10 | COC(=O)C(CBr)CBr | – | 31.8 | – | 19.4 | – | 7.75 | – | 10.1 | – | 33.1 | – | 8.83 | – | 13.2 | – | 10.3 | – | 18.1 | – | 10.2
11 | CCOC(=O)c1c(C)nc2c(c1N)CC(=O)N2CCc1ccccc1 | 3.2 | 10.8 | 12.4 | 62.3 | 0.384 | 14.7 | 0.354 | 15.4 | 1.77 | 14.1 | 3.17 | 16.7 | 0.324 | 11.9 | 0.997 | 18.4 | 0.629 | 17.2 | 1.03 | 21.9
